Article PMC10607708 (Journal of natural products, 2021)
Read-outs that look alike come from different tables or passages of the source.

Columns and labels:
[1] = Saliva levels after intraperitoneal administration of ATB; type: in vivo, C57BL/6 mice; settings: for detection in mouse saliva: i.p. 500 mg/kg ATB q.d., 7 consecutive days
[2] = type: in vivo, C57BL/6 mice; settings: for bioavailability: C57BL/6, mouse, whole blood, ip, 500 mg/kg; for AUC0-t /Dose / Cmax/Dose: blood
PGE2 = PGE2 assay in LPS-stimulated SCC-9 cells; type: cell-based; settings: LC-MS/MS
[3] = tested on: salivary gland adenoid cystic carcinoma cells (ACC-M); settings: in vitro; cited from earlier work
[4] = Pharmacokinetics after i.v. administration of ATB, blood; type: in vivo, C57BL/6 mice; settings: 500 mg/kg ATB IV, matrine dosage 2.79 mg/kg
Stability in saliva = type: in vitro ADME
[5] = Pharmacokinetics after oral administration of ATB or pure KACs, blood; type: in vivo, C57BL/6 mice; settings: for AUC0-t /Dose / Cmax/Dose: blood
Cal-27 = assay: MTT anti-proliferation assay in Cal-27 cells; type: cell-based; settings: in words
[6] = saliva, 500 mg/kg ATB IP Day 7, matrine dosage 2.79 mg/kg
[7] = 500 mg/kg ATB IP Day 1, matrine dosage 2.79 mg/kg
[8] = 500 mg/kg ATB IP Day 7, matrine dosage 2.79 mg/kg
[9] = 5 mg/kg KAC Oral (pure compound), matrine dosage 5.00 mg/kg
[10] = 100 mg/kg ATB Oral, matrine dosage 0.56 mg/kg
[11] = 500 mg/kg ATB Oral, matrine dosage 2.79 mg/kg
[12] = 4000 mg/kg ATB Oral, matrine dosage 22.32 mg/kg

For `CC1=C2C(=O)O[C@@H](c3ccoc3)[C@]2(C)CCC1` [Fraxinellone, fraxinellone], the “detection in mouse saliva” value [1] was “no Frax or Maac detected”, the bioavailability [2] was 2.8 ± 2.1% and the “inhibition of PGE2 production” value (PGE2; 25 μM) was “significant inhibition”.

With `Oc1ccc2c(c1)OCC1c3cc4c(cc3OC21)OCO4` (stereo not shown) [Maackiain, maackiain] the “detection in mouse saliva” value [1] was “no Frax or Maac detected” and the bioavailability [2] was 4.8 ± 4.2%.

For `O=C1CCC[C@@H]2[C@H]3CCCN4CCC[C@@H](CN12)[C@@H]34` [Matrine, matrine], the “effect on adhesion and invasion properties of ACC-M cells” value [3] is given as “inhibit”, the “AUC0-t /Dose” value [4] is given as 1830.0 ± 1241.2 (hr*ng/mL)/(mg/kg) and the Cmax/Dose [4] is given as 1408.3 ± 835.8 (ng/mL)/(mg/kg). For the same compound, the stability in saliva (Stability in saliva; room temperature) was 4 h, the stability in saliva (Stability in saliva; −20 °C) was 170 h and the AUC(0-t) ([1]; C57BL/6, mouse, saliva, ip, 500 mg/kg) was 2680 ± 1660 ng·h/mL. For the same compound, the “detection in mouse saliva” value [1] was “detected”, the “AUC0-t /Dose” value [1, 6] was 952.8 ± 594.4 (hr*ng/mL)/(mg/kg) and the Cmax/Dose [1, 6] was 1533.9 ± 823.5 (ng/mL)/(mg/kg). The bioavailability [2] was 28.9 ± 11%, the “AUC0-t /Dose” value [2, 7] was 528.7 ± 200.9 (hr*ng/mL)/(mg/kg) and the Cmax/Dose [2, 7] was 292.4 ± 147.8 (ng/mL)/(mg/kg). The “AUC0-t /Dose” value [2, 8] was 592.0 ± 434.7 (hr*ng/mL)/(mg/kg), the Cmax/Dose [2, 8] was 197.8 ± 144.1 (ng/mL)/(mg/kg) and the “accumulation in the body after multiple-dose administration” value ([2]; in words, Fig 5) was “no accumulation”. The “AUC0-t /Dose” value [5, 9] was 46.9 ± 13.0 (hr*ng/mL)/(mg/kg), the Cmax/Dose [5, 9] was 22.0 ± 7.4 (ng/mL)/(mg/kg) and the “AUC0-t /Dose” value [5, 10] was 58.5 ± 32.7 (hr*ng/mL)/(mg/kg). The Cmax/Dose [5, 10] was 25.9 ± 20.5 (ng/mL)/(mg/kg), the “AUC0-t /Dose” value [5, 11] was 43.1 ± 21.3 (hr*ng/mL)/(mg/kg) and the Cmax/Dose [5, 11] was 19.3 ± 10.2 (ng/mL)/(mg/kg). The “AUC0-t /Dose” value [5, 12] was 164.1 ± 60.0 (hr*ng/mL)/(mg/kg), the Cmax/Dose [5, 12] was 31.8 ± 10.6 (ng/mL)/(mg/kg) and the “increase of dose-normalized AUC” value ([5]; oral ATB, from 500 mg/kg to 4000 mg/kg) was ~ 400%. The “inhibition of PGE2 production” value (PGE2; 50 μM) was “significant inhibition” and the “inhibition effect against Cal-27 cells” value (Cal-27) was “moderate inhibition effect”.
